The values that follow come from paper PMC7840129, “Structural basis for heme-dependent NCoR binding to the transcriptional repressor REV-ERBβ” (Science Advances, 2021).

In assay [1] the test system is REV-ERBβ LBD cobound to heme. The assay can be described thus: Crystal structures of REV-ERBβ LBD cobound to heme and NCoR ID peptides. The conditions noted are these: ID1 PDB 6WMQ, ID2 PDB 6WMS. It counts as binding, human. How it is done: After overnight incubation at 4°C with peptide, REV-ERBβ LBD cobound to heme and peptide was buffer-exchanged into Hepes gel filtration buffer to remove unbound and concentrated to 15 mg/ml (ID2-bound) or 5 mg/ml (ID1-bound). Buffer-exchanged proteins were screened for conditions that produced crystals using the NR LBD (Molecular Dimensions), Structure (Molecular Dimensions), Index (Hampton Research), and PEG/Ion (Hampton Research) kits and sitting drop method (1-μl reservoir solution added to 1-μl drop of protein solution) at 22°C. REV-ERBβ LBD crystals cobound to heme and NCoR ID2 grew in 0.2 M Mg formate dihydrate and 20% (w/v) PEG 3350 (PEG/Ion), and REV-ERBβ LBD crystals cobound to heme and NCoR ID1 grew in 2.0 M ammonium sulfate, 0.1 M Na Hepes (pH 7.5), and 2% PEG 400 (Structure). Crystals in their respective condition were supplemented with 10% glycerol and flash-cooled in liquid nitrogen. X-ray diffraction data were collected at the Advanced Light Source synchrotron (Lawrence Berkeley National Laboratory) in 180 images with a 1° rotation per image. Data were processed, indexed, and scaled using Mosflm and Scala in CCP4 (Collaborative Computational Project No. 4) ([32], [33]). […]
Structures were aligned, and RMSD values were calculated in PyMOL using the “align” command with cycles set to 0 (no outliers were removed). […]

Assay [2] has as its system heme-bound 15N-labeled REV-ERBβ LBD. The assay can be described thus: NMR structural footprinting, 2D [1H,15N]-TROSY-HSQC titration, heme-bound LBD. It counts as binding, human. The conditions noted are these: 298 K; for NMR exchange regime on peptide titration: heme-bound LBD (200 μM, 1.25 equivalents heme), 20 mM Hepes pH 7.4, 50 mM NaCl, 0.5 mM EDTA; for NMR CSP and line broadening, binding surface: heme-bound LBD, 2× ID1 or ID2 peptide. The source says: To support our ITC results, we performed solution NMR structural footprinting by titrating NCoR ID1 or ID2 peptide into ^15N-labeled REV-ERBβ LBD. For this analysis, we used backbone NMR chemical shift assignments that we previously reported for apo LBD ([18]) and collected three-dimensional (3D) NMR data to obtain backbone NMR chemical shift assignments for heme-bound LBD (fig. S4). […] To qualitatively assess the strength of each interaction, we analyzed the exchange regime of NMR chemical shift changes on the NMR time scale.
Next, we used differential NMR analysis to structurally map the ID1 and ID2 peptide binding surfaces in the heme-bound LBD. In other NRs, the AF-2 coregulator interaction surface is formed by the physical interaction of helix 12 with a surface formed by helices 3 to 5 within the LBD. REV-ERBβ lacks helix 12 but contains the surface formed by helices 3 to 5 including a conserved lysine residue (K421) on helix 3 important for corepressor interaction ([19]). We quantitatively analyzed chemical shift perturbations (CSPs) and line broadening caused by peptide binding in 2D [^1H,^15N]-TROSY-HSQC NMR spectra (Fig. 1D and fig. S6). […] We also observed binding effects on helix 7, which may be attributed to a peptide-induced allosteric conformational change due to interactions between the heme propionate group and G480 on helix 7 (fig. S7).
For generation of ^15N-labeled REV-ERBβ LBD, protein was expressed in BL21(DE3) E. coli cells using M9 minimal media supplemented with ^15NH4Cl (Cambridge Isotope Laboratories) induced at an optical density at 600 nm (OD600) of 0.6 with 0.5 mM isopropyl-β-D-thiogalactopyranoside (IPTG) for 16 hours at 18°C. For generation of ^2H-,^15N-,^13C-labeled REV-ERBβ LBD (~70% deuteration) for peak assignment experiments, cultures were first grown at 37°C in 1 liter of LB media until an OD600 of 0.6 before the cells were pelleted and resuspended in 0.5 liters of M9 minimal media prepared in D2O supplemented with ^13C-D-glucose and ^15NH4Cl (Cambridge Isotope Laboratories). After 1-hour recovery at 37°C, expression was induced with 0.5 mM IPTG for 16 hour at 37°C before harvesting by centrifugation. […]
To generate heme-bound protein, 1.25 molar equivalents of heme prepared in 0.2 M NaOH as a 50 mM stock were added to ^15N-labeled REV-ERBβ LBD (200 μM) or ^2H-,^15N-,^13C-labeled REV-ERBβ LBD (1 mM) in Hepes buffer [20 mM Hepes (pH 7.4), 50 mM NaCl, and 0.5 mM EDTA]. NMR data were collected at 298 K on a Bruker 700-MHz NMR system equipped with a QCI CryoProbe, processed using NMRFx ([40]), and analyzed using NMRViewJ ([41]). […] 2D [^1H,^15N]-TROSY-HSQC data were collected for heme-bound ^15N-labeled REV-ERBβ LBD at 298 K with addition of NCoR ID1 or ID2 peptides prepared as 50 mM stock in DMSO and analyzed in NMRViewJ. […]

Turning to `CC[C@H](C)[C@H](NC(=O)[C@H](CC(=O)O)NC(=O)[C@H](CCC(=O)O)NC(=O)[C@H](CC(C)C)NC(=O)CNC(=O)[C@H](CC(C)C)NC(=O)[C@H](CC(N)=O)NC(=O)[C@H](CO)NC(=O)[C@H](C)NC(=O)[C@@H]1CCCN1C(=O)[C@H](CC(=O)O)NC(C)=O)C(=O)N[C@H](C(=O)N[C@@H](CCCNC(=N)N)C(=O)N[C@@H](CCCCN)C(=O)N[C@@H](C)C(=O)N[C@@H](CC(C)C)C(=O)N[C@@H](CCSC)C(=O)NCC(=O)N[C@@H](CO)C(=O)N[C@@H](Cc1ccccc1)C(=O)N[C@@H](CC(=O)O)C(=O)N[C@@H](CC(=O)O)C(=O)N[C@@H](CCCCN)C(N)=O)[C@@H](C)CC` [NCoR ID2 peptide], in assay [1], the “interaction of bound ID peptide in crystal structure (in words)” value was “formed electrostatic interactions with the conserved charge clamp residue K421 on helix 3”. Also, in assay [2], the “NMR exchange regime on peptide titration” value was “mixture of peak movements in slow and intermediate exchange”; the “NMR CSP and line broadening, binding surface” value was “AF-2 surface residues including K421 showed the largest CSP changes and line broadening”.
As to “Ac-RTHRLITLADHICQIITQDFARN-NH2 [NCoR ID1 peptide]”, the “interaction of bound ID peptide in crystal structure (in words)” value in assay [1] is listed as “formed electrostatic interactions with the conserved charge clamp residue K421 on helix 3”. Moreover, in assay [2], the “NMR exchange regime on peptide titration” value is “mixture of peak movements in slow and intermediate exchange”; the “NMR CSP and line broadening, binding surface” value is “AF-2 surface residues including K421 showed the largest CSP changes and line broadening”.
